Results published in patent EP0908457B1, “3-(1,2-benzisothiazol- and isoxazol-5-Y1)-2,4(1H,3H)-pyrimidinedione or thione and 3-(1,2-benzisothiazol- and isoxazol-5-y1)-4(3H)-pyrimidinone or thione herbicidal agents” (BASF AKTIENGESELLSCHAFT, priority 1997, dated 1999).

What was measured:
[1] = test system: Echinochloa oryzoides (Ard.) Fritsch.; assay: Preemergence weed control under flooded paddy conditions, ECHORC (Watergrass (Calif.)); type: in vivo; conditions: preemergence, flooded paddy, rated three to four weeks after treatment
Cyperus iria = assay: Preemergence weed control under flooded paddy conditions, CYPIR (Rice Flatsedge); type: in vivo; conditions: preemergence, flooded paddy, rated three to four weeks after treatment
[2] = test system: Cyperus serotinus, Rottb.; assay: Preemergence weed control under flooded paddy conditions, CYPSE (Flatsedge); type: in vivo; conditions: preemergence, rated three to four weeks after treatment
[3] = test system: Monochoria vaginalis, Presl.; assay: Preemergence weed control under flooded paddy conditions, MOOVA (Monochoria); type: in vivo; conditions: preemergence, flooded paddy, rated three to four weeks after treatment
Sagittaria pygmaea, L. = assay: Preemergence weed control under flooded paddy conditions, SAGPY (Arrowhead (Pygmaea)); type: in vivo; conditions: preemergence, flooded paddy, rated three to four weeks after treatment
[4] = test system: Oryza sativa, (L.) Tebonnet; assay: Rice tolerance to post-transplant applications under flooded paddy conditions (Example 187), ORYSAT (Rice, Tebonnet); conditions: rated three to four weeks after treatment; as to herbicidal effect rating ORYSAT: meaning of each grade not given here

## CC(C)N(C(C)C)S(=O)(=O)NC(=O)c1nsc2ccc(-n3c(=O)cc(C(F)(F)F)n(C)c3=O)cc12 [Example 500, 1,2-Benzisothiazole-3-carboxamide, 5-[3,6-dihydro-3-methyl-2,6-dioxo-4-(trifluoromethyl)-1(2H)-pyrimidinyl)-N-(diisopropylsulfamoyl)-]
[1]; 0.0320 kg/ha
  ECHORC herbicidal rating: 4.0
[1]; 0.0620 kg/ha
  ECHORC herbicidal rating: 6.0
[1]; 0.1250 kg/ha
  ECHORC herbicidal rating: 7.0
[1]; 0.2500 kg/ha
  ECHORC herbicidal rating: 9.0
Cyperus iria; 0.0320 kg/ha
  CYPIR herbicidal rating: 6.0
Cyperus iria; 0.0620 kg/ha
  CYPIR herbicidal rating: 6.0
Cyperus iria; 0.1250 kg/ha
  CYPIR herbicidal rating: 6.0
Cyperus iria; 0.2500 kg/ha
  CYPIR herbicidal rating: 9.0
[2]; 0.0320 kg/ha
  CYPSE herbicidal rating: 0.0
[2]; 0.0620 kg/ha
  CYPSE herbicidal rating: 0.0
[2]; 0.1250 kg/ha
  CYPSE herbicidal rating: 0.0
[2]; 0.2500 kg/ha
  CYPSE herbicidal rating: 0.0
[3]; 0.0320 kg/ha
  MOOVA herbicidal rating: 7.0
[3]; 0.0620 kg/ha
  MOOVA herbicidal rating: 9.0
[3]; 0.1250 kg/ha
  MOOVA herbicidal rating: 9.0
[3]; 0.2500 kg/ha
  MOOVA herbicidal rating: 9.0
Sagittaria pygmaea, L.; 0.0320 kg/ha
  SAGPY herbicidal rating: 5.0
Sagittaria pygmaea, L.; 0.0620 kg/ha
  SAGPY herbicidal rating: 7.0
Sagittaria pygmaea, L.; 0.1250 kg/ha
  SAGPY herbicidal rating: 7.0
Sagittaria pygmaea, L.; 0.2500 kg/ha
  SAGPY herbicidal rating: 9.0
[4]; 0.0320 kg/ha
  ORYSAT herbicidal rating (rice tolerance): 2.0
[4]; 0.0620 kg/ha
  ORYSAT herbicidal rating (rice tolerance): 2.0
[4]; 0.1250 kg/ha
  ORYSAT herbicidal rating (rice tolerance): 2.0
[4]; 0.2500 kg/ha
  ORYSAT herbicidal rating (rice tolerance): 2.0

## Cn1c(C(F)(F)F)cc(=O)n(-c2ccc3snc(C(=O)NS(=O)(=O)c4ccc5ccccc5c4)c3c2)c1=O [Example 357, 1,2-Benzisothiazole-3-carboxamide, 5-[3,6-dihydro-3-methyl-2,6-dioxo-4-(trifluoromethyl)-1(2H)-pyrimidinyl]-N-(2-naphthylsulfonyl)-]
[1]; Rate 0.0320 kg/ha
  herbicidal effect rating, ECHORC: 4.0
[1]; Rate 0.0620 kg/ha
  herbicidal effect rating, ECHORC: 5.0
[1]; Rate 0.1250 kg/ha
  herbicidal effect rating, ECHORC: 5.0
[1]; Rate 0.2500 kg/ha
  herbicidal effect rating, ECHORC: 7.0
Cyperus iria; Rate 0.0320 kg/ha
  herbicidal effect rating, CYPIR: 0.0
Cyperus iria; Rate 0.0620 kg/ha
  herbicidal effect rating, CYPIR: 0.0
Cyperus iria; Rate 0.1250 kg/ha
  herbicidal effect rating, CYPIR: 2.0
Cyperus iria; Rate 0.2500 kg/ha
  herbicidal effect rating, CYPIR: 6.0
[2]; Rate 0.0320 kg/ha
  herbicidal effect rating, CYPSE: 0.0
[2]; Rate 0.0620 kg/ha
  herbicidal effect rating, CYPSE: 0.0
[2]; Rate 0.1250 kg/ha
  herbicidal effect rating, CYPSE: 0.0
[2]; Rate 0.2500 kg/ha
  herbicidal effect rating, CYPSE: 0.0
[3]; Rate 0.0320 kg/ha
  herbicidal effect rating, MOOVA: 9.0
[3]; Rate 0.0620 kg/ha
  herbicidal effect rating, MOOVA: 9.0
[3]; Rate 0.1250 kg/ha
  herbicidal effect rating, MOOVA: 9.0
[3]; Rate 0.2500 kg/ha
  herbicidal effect rating, MOOVA: 9.0
Sagittaria pygmaea, L.; Rate 0.0320 kg/ha
  herbicidal effect rating, SAGPY: 0.0
Sagittaria pygmaea, L.; Rate 0.0620 kg/ha
  herbicidal effect rating, SAGPY: 0.0
Sagittaria pygmaea, L.; Rate 0.1250 kg/ha
  herbicidal effect rating, SAGPY: 0.0
Sagittaria pygmaea, L.; Rate 0.2500 kg/ha
  herbicidal effect rating, SAGPY: 4.0
[4]; Rate 0.0320 kg/ha
  herbicidal effect rating ORYSAT: 2.0
[4]; Rate 0.0620 kg/ha
  herbicidal effect rating ORYSAT: 2.0
[4]; Rate 0.1250 kg/ha
  herbicidal effect rating ORYSAT: 2.0
[4]; Rate 0.2500 kg/ha
  herbicidal effect rating ORYSAT: 3.0

## CC(C)OP(=O)(Cc1nsc2ccc(-n3c(=O)cc(C(F)(F)F)n(C)c3=O)cc12)OC(C)C [Example 263, 1,2-Benzisothiazole-3-methanephosphonic acid, 5-[3,6-dihydro-3-methyl-2,6-dioxo-4-(trifluoromethyl)-1(2H)-pyrimidinyl]-, diisopropyl ester]
[1]; Rate 0.0320 kg/ha
  ECHORC herbicidal effect rating: 0.0
[1]; Rate 0.0620 kg/ha
  ECHORC herbicidal effect rating: 0.0
[1]; Rate 0.1250 kg/ha
  ECHORC herbicidal effect rating: 0.0
[1]; Rate 0.2500 kg/ha
  ECHORC herbicidal effect rating: 2.0
Cyperus iria; Rate 0.0320 kg/ha
  CYPIR herbicidal effect rating: 4.0
Cyperus iria; Rate 0.0620 kg/ha
  CYPIR herbicidal effect rating: 7.0
Cyperus iria; Rate 0.1250 kg/ha
  CYPIR herbicidal effect rating: 9.0
Cyperus iria; Rate 0.2500 kg/ha
  CYPIR herbicidal effect rating: 9.0
[2]; Rate 0.0320 kg/ha
  CYPSE herbicidal effect rating: 9.0
[2]; Rate 0.0620 kg/ha
  CYPSE herbicidal effect rating: 9.0
[2]; Rate 0.1250 kg/ha
  CYPSE herbicidal effect rating: 9.0
[2]; Rate 0.2500 kg/ha
  CYPSE herbicidal effect rating: 9.0
[3]; Rate 0.0320 kg/ha
  MOOVA herbicidal effect rating: 0.0
[3]; Rate 0.0620 kg/ha
  MOOVA herbicidal effect rating: 0.0
[3]; Rate 0.1250 kg/ha
  MOOVA herbicidal effect rating: 6.0
[3]; Rate 0.2500 kg/ha
  MOOVA herbicidal effect rating: 9.0
Sagittaria pygmaea, L.; Rate 0.0320 kg/ha
  SAGPY herbicidal effect rating: 0.0
Sagittaria pygmaea, L.; Rate 0.0620 kg/ha
  SAGPY herbicidal effect rating: 0.0
Sagittaria pygmaea, L.; Rate 0.1250 kg/ha
  SAGPY herbicidal effect rating: 0.0
Sagittaria pygmaea, L.; Rate 0.2500 kg/ha
  SAGPY herbicidal effect rating: 0.0
[4]; Rate 0.0320 kg/ha
  ORYSAT herbicidal effect rating: 0.0
[4]; Rate 0.0620 kg/ha
  ORYSAT herbicidal effect rating: 0.0
[4]; Rate 0.1250 kg/ha
  ORYSAT herbicidal effect rating: 0.0
[4]; Rate 0.2500 kg/ha
  ORYSAT herbicidal effect rating: 4.0
